This is an account of results in patent US20210403922A1 (CRISP-HR Therapeutics, Inc., priority 2019, published 2021).

Entries after “also recorded” stand apart in the source; their conditions may differ.

One data set concerns HBB genomic region. As to the kind of experiment: Sanger sequencing of the HBB genomic region after Cas9 and gRNA transfection. The note with it: FIG. 6C / FIG. 13B, A549 cells, unmodified Cas9. It is filed as cell-based, Human.
A further data set deals with A549 cells. Description: Resazurin reduction assay, gRNA targeting exon 1 of HBB gene. The data set is classed as cell-based, Human. The note with it: FIG. 6B / FIG. 13A. The procedure:
Cells are cultured in a 96-well plate and each well is seeded with about 2.5×10^4 cells. Each column of the 96-well plate receives a treatment with different plasmid respectively. […] The cells in the first column are transfected with plasmids encoding the first fusion protein as shown in FIG. 1; the cells in the second column with plasmids encoding the second fusion protein as shown in FIG. 1; the cells in the third column with plasmids encoding the third fusion protein as shown in FIG. 1; the cells in the fourth column with plasmids encoding the fourth fusion protein as shown in FIG. 1; the cells in the fifth column with plasmids encoding the fifth fusion protein as shown in FIG. 1; the cells in the sixth column with plasmids encoding the sixth fusion protein as shown in FIG. 1; the cells in the seventh column with plasmids encoding the seventh fusion protein as shown in FIG. 1; the cells in the eighth column with plasmids encoding the eighth fusion protein as shown in FIG. 1; and the cells in the ninth column with plasmids encoding the ninth fusion protein as shown in FIG. 1. […] The cells in the twelfth column are transfected with plasmids encoding GFPs. The cells in the […] are controls without any treatment.
Each of the plasmid constructs also contained a nucleotide sequence encoding a gRNA directed to recognize exon 1 of the human HBB gene. […] Three gRNA sequences as listed in Table 2 directed to recognize one of HBB gene's exon were used.
Toxicity was quantified using Resazurin as in Example 1.

Data set [1] deals with phosphorylated 5′-double strand DNA ends. The note with it: cited from earlier work.

For “HBB-G1: gRNA designed to target Exon 1 of the HBB gene, SEQ ID NO: 21 (guide GUAACGGCAGACUUCUCCUC; chemistry not given here)”, the “Cas9 cleavage and repair via NHEJ (INDELs) by Sanger sequencing” value with HBB genomic region is reported as “could not be detected”.
Consider “HBB-G3: gRNA designed to target Exon 1 of the HBB gene, SEQ ID NO: 23 (guide GAGGUGAACGUGGAUGAAGU; chemistry not given here)”, for which the “cellular toxicity of HBB gRNA guides with unmodified Cas9 (NT)” value in the data set with A549 cells is “higher toxicity than either HBB-G1 or HBB-G2”; in the data set on A549 cells (listed as NT HBB-G3), “smallest normalized fold change number”; in the data set with A549 cells (listed as gRNA G3), “highest cellular toxicity”. The “Cas9 cleavage and repair via NHEJ (INDELs) by Sanger sequencing” value is “characteristic noise following Cas9 cleavage and repair via NHEJ pathways; also recorded: significant cleavage” with HBB genomic region; “generation of INDELs” with HBB genomic region (listed as Cas9 HBB-G3).

B1: hExo1: human Exo1 exonuclease; N-terminal nuclease region SEQ ID NO: 1 (protein, listed as Homo sapiens)
chain: MGIQGLLQFIKEASEPIHVRKYKGQVVAVDTYCWLHKGAIACAEKLAKGEPTDRYVGFCMKFVNMLLSHGIKPILVFDGCTLPSKKEVERSRRERRQANLLKGKQLLREGKVSEARECFTRSINITHAMAHKVIKAARSQGVDCLVAPYEADAQLAYLNKAGIVQAIITEDSDLLAFGCKKVILKMDQFGNGLEIDQARLGMCRQLGDVFTEEKFRYMCILSGCDYLSSLRGIGLAKACKVLRLANNPDIVKVIKKIGHYLKMNITVPEDYINGFIRANNTFLYQLVFDPIKRKLIPLNAYEDDVDPETLSYAGQYVDDSIALQIALGNKDINTFEQIDDYNPDTAMPAHSRSHSWDDKTCQKSANVSSIWHRNYSPRPESGTVSDAPQLKE
For B1, the “affinity for phosphorylated 5′-double strand DNA ends as for unphosphorylated” value in data set [1] is given as “roughly 10 ×”.
